Test results from the supplement of paper PMC10307832.

Legend:
Experiment in all cases: relative viability (nuclei count vs DMSO), 5 days (fraction); higher = more cells survive
[1] = test system: NCI-H1975
Procedure, shortened: (§1)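 Lung cancer cell lines in 1536-well plates were dosed by pin tool the day after seeding, either with one drug alone or with a fixed anchor-drug dose plus five library-drug doses (not always all listed) in √10 steps. After 5 days, cells were fixed and their nuclei stained in one step (final 0.05% Triton X-100, 1% formaldehyde, 1 ug/ml Hoechst), then counted on 4× images. Relative viability is the nuclei count in treated wells divided by that in vehicle wells. Values are medians of duplicate plates.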

[2] = test system: ChaGo-K-1
Procedure, shortened: as §1

[3] = test system: NCI-H2347
Procedure, shortened: as §1

[4] = test system: NCI-H1734
Procedure, shortened: as §1

[5] = test system: NCI-H1355
Procedure, shortened: as §1

[6] = test system: NCI-H1944
Procedure, shortened: as §1

[7] = test system: LC-2-ad
Procedure, shortened: as §1

[8] = test system: NCI-H2087
Procedure, shortened: as §1

[9] = test system: SW 1573
Procedure, shortened: as §1

[10] = test system: SK-LU-1
Procedure, shortened: as §1

[11] = test system: PC-3 [JPC-3]
Procedure, shortened: as §1

[12] = test system: NCI-H838
Procedure, shortened: as §1

[13] = test system: EMC-BAC-2
Procedure, shortened: as §1

[14] = test system: NCI-H2126
Procedure, shortened: as §1

[15] = test system: HCC-44
Procedure, shortened: as §1

[16] = test system: HCC-78
Procedure, shortened: as §1

[17] = test system: HCC-366
Procedure, shortened: as §1

[18] = test system: UMC-11
Procedure, shortened: as §1

[19] = test system: NCI-H2009
Procedure, shortened: as §1

[20] = test system: NCI-H441
Procedure, shortened: as §1

[21] = test system: HOP-62
Procedure, shortened: as §1

[22] = test system: NCI-H727
Procedure, shortened: as §1

Compound `C=C1C(=O)O[C@@H](CCCCCCCC)[C@@H]1C(=O)O` [C-75] + CC1(C)CCC(c2ccc(Cl)cc2)=C(CN2CCN(c3ccc(C(=O)NS(=O)(=O)c4ccc(N[C@H](CCN5CCOCC5)CSc5ccccc5)c(S(=O)(=O)C(F)(F)F)c4)cc3)CC2)C1 [Navitoclax] (partner 0.5 µM) has a relative viability ([1]; first compound 0.08 µM) of 0.983, a relative viability ([1]; first compound 0.253 µM) of 1.1 and a relative viability ([1]; first compound 0.8 µM) of 1.12. For the same compound, the relative viability ([1]; first compound 2.53 µM) was 1.1, the relative viability ([1]; first compound 8 µM) was 1.14 and the relative viability ([2]; first compound 0.08 µM) was 0.971. The relative viability ([2]; first compound 0.253 µM) was 0.953, the relative viability ([2]; first compound 0.8 µM) was 0.833 and the relative viability ([2]; first compound 2.53 µM) was 0.747. The relative viability ([2]; first compound 8 µM) was 0.956, the relative viability ([3]; first compound 0.08 µM) was 0.688 and the relative viability ([3]; first compound 0.253 µM) was 1.03. The relative viability ([3]; first compound 0.8 µM) was 0.755, the relative viability ([3]; first compound 2.53 µM) was 0.758 and the relative viability ([3]; first compound 8 µM) was 0.714. For the same compound, the relative viability ([4]; first compound 0.08 µM) was 0.828, the relative viability ([4]; first compound 0.253 µM) was 0.778 and the relative viability ([4]; first compound 0.8 µM) was 0.815. The relative viability ([4]; first compound 2.53 µM) was 0.629, the relative viability ([4]; first compound 8 µM) was 0.754 and the relative viability ([5]; first compound 0.08 µM) was 0.951. The relative viability ([5]; first compound 0.253 µM) was 0.894, the relative viability ([5]; first compound 0.8 µM) was 0.867 and the relative viability ([5]; first compound 2.53 µM) was 0.952. For the same compound, the relative viability ([5]; first compound 8 µM) was 0.956, the relative viability ([6]; first compound 0.08 µM) was 1.03 and the relative viability ([6]; first compound 0.253 µM) was 0.896. The relative viability ([6]; first compound 0.8 µM) was 1.01, the relative viability ([6]; first compound 8 µM) was 0.998 and the relative viability ([7]; first compound 0.08 µM) was 0.53. The relative viability ([7]; first compound 0.253 µM) was 0.56, the relative viability ([7]; first compound 0.8 µM) was 0.479 and the relative viability ([7]; first compound 8 µM) was 0.474. It also gave a relative viability ([8]; first compound 0.08 µM) of 1.02, a relative viability ([8]; first compound 0.253 µM) of 1.05 and a relative viability ([8]; first compound 0.8 µM) of 0.934. The relative viability ([8]; first compound 2.53 µM) was 0.927, the relative viability ([8]; first compound 8 µM) was 0.87 and the relative viability ([9]; first compound 0.08 µM) was 1.01. The relative viability ([9]; first compound 0.253 µM) was 0.969, the relative viability ([9]; first compound 0.8 µM) was 1.21 and the relative viability ([9]; first compound 2.53 µM) was 1.06. It also gave a relative viability ([9]; first compound 8 µM) of 0.875, a relative viability ([10]; first compound 0.08 µM) of 0.932 and a relative viability ([10]; first compound 0.253 µM) of 0.85. For the same compound, the relative viability ([10]; first compound 0.8 µM) was 0.763, the relative viability ([10]; first compound 2.53 µM) was 0.709 and the relative viability ([10]; first compound 8 µM) was 0.751. It also gave a relative viability ([11]; first compound 0.08 µM) of 0.853, a relative viability ([11]; first compound 0.253 µM) of 0.841 and a relative viability ([11]; first compound 0.8 µM) of 0.841. The relative viability ([11]; first compound 2.53 µM) was 0.826, the relative viability ([11]; first compound 8 µM) was 0.874 and the relative viability ([12]; first compound 0.08 µM) was 1.12. It also gave a relative viability ([12]; first compound 0.253 µM) of 0.916, a relative viability ([12]; first compound 0.8 µM) of 1.14 and a relative viability ([12]; first compound 2.53 µM) of 1.03. The relative viability ([12]; first compound 8 µM) was 0.954, the relative viability ([13]; first compound 0.08 µM) was 1.13 and the relative viability ([13]; first compound 0.253 µM) was 1.18. The relative viability ([13]; first compound 0.8 µM) was 1.15, the relative viability ([13]; first compound 2.53 µM) was 1.07 and the relative viability ([13]; first compound 8 µM) was 1.18. For the same compound, the relative viability ([14]; first compound 0.08 µM) was 0.869, the relative viability ([14]; first compound 0.253 µM) was 0.902 and the relative viability ([14]; first compound 0.8 µM) was 0.871. For the same compound, the relative viability ([14]; first compound 2.53 µM) was 0.718, the relative viability ([14]; first compound 8 µM) was 0.818 and the relative viability ([15]; first compound 0.08 µM) was 0.972. It also gave a relative viability ([15]; first compound 0.253 µM) of 0.959, a relative viability ([15]; first compound 0.8 µM) of 0.905 and a relative viability ([15]; first compound 2.53 µM) of 0.791. It also gave a relative viability ([15]; first compound 8 µM) of 1.02, a relative viability ([16]; first compound 0.08 µM) of 0.791 and a relative viability ([16]; first compound 0.253 µM) of 0.834. The relative viability ([16]; first compound 0.8 µM) was 0.75, the relative viability ([16]; first compound 2.53 µM) was 0.708 and the relative viability ([16]; first compound 8 µM) was 0.864. For the same compound, the relative viability ([17]; first compound 0.08 µM) was 1.03, the relative viability ([17]; first compound 0.253 µM) was 1.1 and the relative viability ([17]; first compound 0.8 µM) was 0.943. The relative viability ([17]; first compound 8 µM) was 0.833, the relative viability ([18]; first compound 0.08 µM) was 0.3 and the relative viability ([18]; first compound 0.253 µM) was 0.299. The relative viability ([18]; first compound 0.8 µM) was 0.292, the relative viability ([18]; first compound 2.53 µM) was 0.287 and the relative viability ([18]; first compound 8 µM) was 0.239. For the same compound, the relative viability ([19]; first compound 0.08 µM) was 1.16, the relative viability ([19]; first compound 0.253 µM) was 1.08 and the relative viability ([19]; first compound 0.8 µM) was 1.1. It also gave a relative viability ([19]; first compound 2.53 µM) of 0.971, a relative viability ([19]; first compound 8 µM) of 0.946 and a relative viability ([20]; first compound 0.08 µM) of 0.566. For the same compound, the relative viability ([20]; first compound 0.253 µM) was 0.618, the relative viability ([20]; first compound 0.8 µM) was 0.599 and the relative viability ([20]; first compound 2.53 µM) was 0.401. It also gave a relative viability ([20]; first compound 8 µM) of 0.488, a relative viability ([21]; first compound 0.08 µM) of 1.02 and a relative viability ([21]; first compound 0.253 µM) of 1.25. For the same compound, the relative viability ([21]; first compound 0.8 µM) was 1.04, the relative viability ([21]; first compound 2.53 µM) was 0.889 and the relative viability ([21]; first compound 8 µM) was 0.857. It also gave a relative viability ([22]; first compound 0.08 µM) of 0.464, a relative viability ([22]; first compound 0.253 µM) of 0.62 and a relative viability ([22]; first compound 0.8 µM) of 0.436. For the same compound, the relative viability ([22]; first compound 2.53 µM) was 0.377 and the relative viability ([22]; first compound 8 µM) was 0.319.
